From patent US12053736B2, “Process for regenerating a liquid absorbent” (COMMONWEALTH SCIENTIFIC AND INDUSTRIAL RESEARCH ORGANISATION, priority 2019, dated 2024)
Read-outs that look alike come from different tables or passages of the source.

Assays:
[1] = Accelerated oxidative degradation of benzylamine (CO2/O2, 55° C., 13C-NMR); assay type: physicochemical; conditions: 1 mol/L, CO2 (1 bar) and O2 (9 bar), 10 days, relative 13C-NMR peak areas
Description: A solution of 10 mL of 1 mol/L BZA was placed in a Fischer-Porter vessel. […] Based on relative peak areas approximately 41% of the BZA had been converted to imine.

[2] = conjugate acid pKa, cited from earlier work
[3] = Extraction of imine dimer by solid absorption on Amberlite XAD-2; assay type: physicochemical; conditions: Amberlite XAD-2, stirred 2 hours, 13C NMR
Description: (§1) A sample of the aqueous absorbent, which had initially contained 3 mol/L 3-AMPy and 3 mol/L 2-amino-2-methyl-1-propanol (AMP), was taken after 5000 hours (c.a. 208 days) of operation in the pilot plant campaign described in Example 2. Despite the improved stability of the solution as a result of the AMP, imine dimer degradation product was present in significant quantities (c.a. 0.35 mol/litre) by this time.
Amberlite XAD-2, a hydrophobic crosslinked polystyrene copolymer resin, was washed 3 times in deionized water followed by washing 3 times in dichloromethane (DCM). The cleaned beads were mixed with the absorbent sample that had been exposed to 5000 hours of flue gas. The mixture was stirred for 2 hours to allow the hydrophobic components to adhere to the polymer resin. The mixture was filtered to remove the water soluble portion of the degraded amine absorbent. The beads were washed with water and this water added to the filtrate. The beads were then washed with 3 portions of DCM, and the collected DCM was partially evaporated.
Very little amine was extracted into the beads and carried over to the DCM wash, as evidenced by the lack of peaks near 42 ppm (these peaks are present in the sample and aqueous filtrate spectra). […]

[4] = Viscosity of absorbent (Anton Parr LOVIS 2000 ME, 40° C.); assay type: physicochemical; conditions: imine added to fresh absorbent
Description: Another sample of the aqueous absorbent, which had initially contained 3 mol/L 3-AMPy and 3 mol/L 2-amino-2-methyl-1-propanol (AMP) and was taken after c.a. 5000 hours (c.a. 208 days) of operation in the pilot plant campaign described in Example 2, was extracted with dichloromethane as described in Example 5. As a result of the extraction, the viscosity of the sample was reduced from 9.9 mPa·s to 6.0 mPa·s (measured at 40° C. using an Anton Parr LOVIS 2000 ME instrument). By comparison, the viscosity of the fresh, CO2 free absorbent was 4.7 mPa·s. The effect of the viscosity reduction is to improve the performance of the absorbent in the plant through better flow properties and reduced mass transfer resistance.
The synthesised imine (structure confirmed by IR spectroscopy) was added to fresh absorbent and the impact on viscosity measured (measured at 40° C. using an Anton Parr LOVIS 2000 ME).

[5] = Extraction of imine dimer into organic solvents (liquid-liquid partition, GC-MS, 13C NMR); assay type: physicochemical
Description: as §1, with “3800” for “5000”, “158” for “208”, “AMP, it is evident from FIG. 3 that” for “AMP,”, “0.2” for “0.35”
Equal volumes of the sample and dichloromethane were vigorously shaken in a separating funnel and allowed to undergo phase separation. The two phases were then collected and separately analysed by GC-MS. FIGS. 4 and 5 depict gas chromatographs of the organic and aqueous phases respectively, with the peaks identified by mass spectrometry via comparison against libraries of reference spectra.
Samples of the same aqueous absorbent were also extracted with equal volumes of toluene or ethyl acetate. The organic phases after extraction with dichloromethane, toluene and ethyl acetate were analysed by ^13C NMR.

[6] = Hydrolysis of imine dimer under acidic aqueous conditions; assay type: physicochemical; conditions: acetic acid and water with DCM solution, room temperature, 24 hours
Description: The imine of Formula (II) is found to be unstable in acidic aqueous conditions. For the case where the degradation product is extracted from the liquid absorbent into an organic solvent, hydrolysis may thus be achieved by contacting the separated organic phase with an acidified aqueous phase, for example containing a catalytic amount of acetic acid. After suitable mixing and time for hydrolysis, the two phases are separated by conventional liquid-liquid separation techniques, with the regenerated amine of Formula (I) partitioned into the aqueous phase and the less polar aldehyde of Formula (III) remaining in the organic phase. The aqueous phase, now containing a first portion of regenerated amine of Formula (I), may then be recycled to the gas absorption process. It will be appreciated that a theoretical maximum of 50 mol % of the degraded amine may be recovered by this process step, since each molecule of imine incorporates two amine molecules.
A sample of the aqueous absorbent, which had initially contained 3 mol/L 3-AMPy and 3 mol/L 2-amino-2-methyl-1-propanol (AMP) and was taken after c.a. 3800 hours (c.a. 158 days) of operation in the pilot plant campaign described in Example 2. The sample was shaken with an equal volume of dichloromethane (DCM) in a separating funnel for 1 minute. The phases were then allowed to separate and each phase was collected separately. […]

[7] = Accelerated oxidative degradation of diethanolamine solutions with sacrificial amine (CO2/O2, 55° C., 13C-NMR); conditions: 5.9 mol/L DEA and 0.1 mol/L additive, CO2 (1 bar), O2 (9 bar), 115 hours
Description: The effect of 3-aminomethylpyridine (3-AMPy) and benzylamine (BZA) on the degradation of DEA was investigated using accelerated degradation conditions designed to simulate longer-term degradation in a gas capture process. DEA solutions were thus prepared as follows: i) 6 mol/L DEA; ii) 5.9 mol/L DEA and 0.1 mol/L BZA; and iii) 5.9 mol/L DEA and 0.1 mol/L 3-AMPy. Each solution (10 ml) was placed in a Fischer-Porter vessel. The vessels were sealed and the remaining headspace of the vessels was filled with CO2 (1 bar) and O2 (9 bar). The liquid phase in the vessels was stirred via magnetic stirring bars and heated to 55° C. by immersion in a water bath for 115 hours.
Samples were then taken and analysed by ^13C-NMR spectroscopy (Bruker Avance 400).

Structure (SMILES)	pKa at 25° C. ([2]; table of Example 4)	pKa at 25° C. ([2]; table in description)	other results
NCc1ccccc1 [BZA, benzylamine]	–	–	amine converted to imine [1]: approximately 41%
OCC1CCCCN1 (stereo not drawn) [2-piperidinylmethanol]	10.1	–	–
C(=NCc1cccnc1)c1cccnc1 [imine dimer]	–	–	extraction by hydrophobic resin beads [3]: majority of the imine was extracted; impact on viscosity of fresh absorbent [4]: increased with the concentration of synthetic imine added; extraction into organic phase ([5]; dichloromethane, toluene or ethyl acetate, equal volumes, 13C NMR): successful and selective extraction; phase distribution after extraction ([5]; equal volumes of used absorbent sample and dichloromethane, GC-MS): almost exclusively present in the organic phase; stability under acidic aqueous conditions [6]: unstable
NCc1cccnc1 [3-(aminomethyl)pyridine]	–	–	DEA degradation (13C-NMR peak at 67 ppm) in presence of sacrificial amine [7]: this degradation has not occurred
NCCS(=O)(=O)[O-].[K+] [potassium taurate]	9.1	9.1	–
NCC(=O)[O-].[Na+] [sodium glycinate]	9.6	9.6	–
OCC1CCNCC1 [4-piperidinylmethanol]	10.6	–	–
CC(N)CO (stereo not drawn) [2-amino-1-propanol]	9.5	9.5	–
